Assay results taken from patent US10670605B2, “Cysteine reactive probes and uses thereof” (The Scripps Research Institute, priority 2015, dated 2020).
Counter-ions that a name gives are not always drawn.

How the values were obtained:
Assay in all cases: isoTOP-ABPP of compound-treated primary human T cells
Type in all cases: cell-based
[1] = molecular target: T1, Cys residues in primary human T cells (Homo sapiens, UniProt Q9Y277)
T1 sequence (Q9Y277 1-283): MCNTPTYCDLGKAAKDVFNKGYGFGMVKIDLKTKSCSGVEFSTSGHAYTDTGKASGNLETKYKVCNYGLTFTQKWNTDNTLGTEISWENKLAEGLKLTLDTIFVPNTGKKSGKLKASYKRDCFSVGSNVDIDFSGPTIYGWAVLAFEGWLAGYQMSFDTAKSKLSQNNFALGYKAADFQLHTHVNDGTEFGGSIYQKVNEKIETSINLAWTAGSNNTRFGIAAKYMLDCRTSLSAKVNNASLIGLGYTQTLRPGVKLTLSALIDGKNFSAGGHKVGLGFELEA

[2] = molecular target: T2, Cys residues in primary human T cells (Homo sapiens, UniProt Q13045); details: FLU Protein flightless-1 homolog C46 (Q13045)
T2 sequence (Q13045 1-1269): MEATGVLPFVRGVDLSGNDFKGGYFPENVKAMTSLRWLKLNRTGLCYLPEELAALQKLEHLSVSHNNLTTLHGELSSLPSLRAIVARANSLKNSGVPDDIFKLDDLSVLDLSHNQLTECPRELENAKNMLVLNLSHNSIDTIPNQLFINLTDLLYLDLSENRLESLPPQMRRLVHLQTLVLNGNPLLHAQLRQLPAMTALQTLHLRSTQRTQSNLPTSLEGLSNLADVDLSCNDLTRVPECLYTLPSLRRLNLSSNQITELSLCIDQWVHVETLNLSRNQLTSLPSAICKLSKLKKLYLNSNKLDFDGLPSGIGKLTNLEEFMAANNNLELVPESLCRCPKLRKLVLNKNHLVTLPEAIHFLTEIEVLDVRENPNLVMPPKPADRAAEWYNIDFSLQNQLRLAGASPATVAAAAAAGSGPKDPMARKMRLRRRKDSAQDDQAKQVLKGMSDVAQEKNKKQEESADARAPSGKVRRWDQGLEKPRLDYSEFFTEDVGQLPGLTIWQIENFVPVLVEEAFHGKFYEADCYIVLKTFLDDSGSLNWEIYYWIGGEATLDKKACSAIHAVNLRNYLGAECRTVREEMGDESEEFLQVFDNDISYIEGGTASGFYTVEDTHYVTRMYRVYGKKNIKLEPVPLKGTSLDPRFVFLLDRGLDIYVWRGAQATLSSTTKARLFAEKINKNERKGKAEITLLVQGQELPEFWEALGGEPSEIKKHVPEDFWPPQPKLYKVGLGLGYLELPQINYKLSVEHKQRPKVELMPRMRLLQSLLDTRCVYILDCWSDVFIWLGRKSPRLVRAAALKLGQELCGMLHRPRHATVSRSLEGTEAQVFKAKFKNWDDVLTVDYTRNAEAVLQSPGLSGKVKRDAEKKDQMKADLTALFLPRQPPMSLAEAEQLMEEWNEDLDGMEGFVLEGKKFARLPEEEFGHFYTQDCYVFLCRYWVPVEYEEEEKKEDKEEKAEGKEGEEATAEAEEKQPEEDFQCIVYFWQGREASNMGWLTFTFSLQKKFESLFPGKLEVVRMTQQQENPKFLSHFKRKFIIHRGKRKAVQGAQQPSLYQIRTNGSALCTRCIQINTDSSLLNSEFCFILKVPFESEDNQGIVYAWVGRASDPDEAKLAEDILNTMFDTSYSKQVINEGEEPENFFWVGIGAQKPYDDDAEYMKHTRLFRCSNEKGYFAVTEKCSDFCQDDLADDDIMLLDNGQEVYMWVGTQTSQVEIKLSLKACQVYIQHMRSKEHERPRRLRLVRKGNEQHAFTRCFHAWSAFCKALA

[3] = molecular target: T3, Cys residues in primary human T cells (Homo sapiens, UniProt Q9Y4W2); details: LAS1L C456 (Q9Y4W2)
T3 sequence (Q9Y4W2 1-734): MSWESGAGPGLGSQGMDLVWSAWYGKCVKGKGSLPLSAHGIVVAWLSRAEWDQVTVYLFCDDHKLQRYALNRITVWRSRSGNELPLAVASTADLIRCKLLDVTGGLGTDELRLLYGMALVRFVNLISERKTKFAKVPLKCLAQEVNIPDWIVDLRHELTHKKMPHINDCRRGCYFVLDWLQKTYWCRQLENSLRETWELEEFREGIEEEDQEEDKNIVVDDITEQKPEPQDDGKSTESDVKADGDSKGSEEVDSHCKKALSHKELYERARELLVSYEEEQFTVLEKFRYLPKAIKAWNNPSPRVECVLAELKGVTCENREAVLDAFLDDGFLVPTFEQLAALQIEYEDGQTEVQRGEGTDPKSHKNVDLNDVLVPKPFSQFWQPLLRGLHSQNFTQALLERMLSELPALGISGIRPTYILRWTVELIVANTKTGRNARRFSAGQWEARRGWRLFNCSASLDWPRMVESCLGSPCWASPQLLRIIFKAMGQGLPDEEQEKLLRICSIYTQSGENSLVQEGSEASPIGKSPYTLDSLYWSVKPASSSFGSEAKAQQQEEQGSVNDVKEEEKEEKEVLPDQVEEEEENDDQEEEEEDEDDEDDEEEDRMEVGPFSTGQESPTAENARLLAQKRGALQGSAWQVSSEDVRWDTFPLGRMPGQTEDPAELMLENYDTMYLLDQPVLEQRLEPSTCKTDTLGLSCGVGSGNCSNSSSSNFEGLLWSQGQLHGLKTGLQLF

In the case of `COC(=O)/C=C/C(=O)OC` [DMF, dimethyl fumarate], the “R value (DMSO/DMF)” value ([1]; VDAC3 C36 (Q9Y277), DMF 50 μM 1h) is reported as 3.21, the “R value (DMSO/DMF)” value ([1]; VDAC3 C36 (Q9Y277), DMF 50 μM 2h) is reported as 3.98 and the “R value (DMSO/DMF)” value ([1]; VDAC3 C36 (Q9Y277), DMF 50 μM 4h) is reported as 4.11. The “R value (DMSO/DMF)” value ([1]; VDAC3 C65 (Q9Y277), DMF 10 μM 4h) was 1.73, the “R value (DMSO/DMF)” value ([1]; VDAC3 C65 (Q9Y277), DMF 25 μM 4h) was 5.64 and the “R value (DMSO/DMF)” value ([1]; VDAC3 C65 (Q9Y277), DMF 50 μM 1h) was 3.35. For the same compound, the “R value (DMSO/DMF)” value ([1]; VDAC3 C65 (Q9Y277), DMF 50 μM 2h) was 7.53, the “R value (DMSO/DMF)” value ([1]; VDAC3 C65 (Q9Y277), DMF 50 μM 4h) was 15.94 and the “R value (DMSO/DMF)” value ([2]; DMF 10 μM 4h) was 1.55. The “R value (DMSO/DMF)” value ([2]; DMF 50 μM 1h) was 2.05, the “R value (DMSO/DMF)” value ([2]; DMF 50 μM 2h) was 3.57 and the “R value (DMSO/DMF)” value ([2]; DMF 50 μM 4h) was 4.5. For the same compound, the “R value (DMSO/DMF)” value ([3]; DMF 10 μM 4h) was 1.29, the “R value (DMSO/DMF)” value ([3]; DMF 50 μM 1h) was 1.8 and the “R value (DMSO/DMF)” value ([3]; DMF 50 μM 2h) was 3.42. For the same compound, the “R value (DMSO/DMF)” value ([3]; DMF 50 μM 4h) was 5.61.
